Biological target: T1, human Farnesoid X Receptor (FXR) ligand binding domain (GST-FXR LBD) (Homo sapiens, UniProt Q96RI1)
T1 construct: purchased Invitrogen
T1 sequence (Q96RI1 193-472 isoform Q96RI1-2): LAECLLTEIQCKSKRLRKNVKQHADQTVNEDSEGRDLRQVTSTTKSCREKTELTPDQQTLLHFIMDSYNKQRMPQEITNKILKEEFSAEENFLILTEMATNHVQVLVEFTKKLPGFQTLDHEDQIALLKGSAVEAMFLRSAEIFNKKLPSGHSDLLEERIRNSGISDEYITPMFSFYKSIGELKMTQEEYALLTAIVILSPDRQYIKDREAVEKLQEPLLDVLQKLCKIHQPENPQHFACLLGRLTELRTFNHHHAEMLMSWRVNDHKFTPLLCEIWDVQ
Test: Human GST-FXR LBD co-activator interaction assay (FXR HTRF assay)
Format: biochemical
Settings: ligand-dependent interaction of GST-FXR LBD with biotin-labeled SRC-1 peptide, response relative to GW4064, read-out: FXR coactivator interaction assay (HTRF)
Text: Human GST-FXR LBD Co-Activator Interaction Assay
The FXR HTRF assay is a biochemical assay measuring the interaction between FXR and a coactivator protein (SRC1). The ligand-induced interaction with a coactivator protein is a critical step in transcriptional activation by FXR. Thus, this is an assay designed to measure FXR agonist activity of the test compounds.
Recombinant human Farnesoid X Receptor (FXR) ligand binding domain (amino acids 193-472) fused to glutathione S-transferase (GST) purified protein (GST-FXR LBD) was purchased (Invitrogen). The ligand-dependent interaction between GST-FXR LBD and a peptide derived from Steroid Receptor Coactivator-1 (SRC-1) was monitored by Fluorescence Resonance Energy Transfer (FRET). […] Test compounds (in DMSO solution) and detection reagents (anti-GST-Cryptate labeled antibody and Streptavidin-XL665 conjugate; CisBio) were added in assay buffer containing 50 mM KF. Plates are incubated at room temperature in the dark for 2.5 hrs before reading on an Envision (PerkinElmer) at 665 nm and 590 nm. The HTRF assay results were calculated from the 665 nm/590 nm ratio (ratio=(A665 nm/A590 nm)×10^4) and expressed in Delta F %=(Ratiosample−Rationegative)/Rationegative×100.
A negative control (without Streptavidin-XL665) was run with each assay and represented the background fluorescence. A reference FXR agonist, (E)-3-(2-chloro-4-((3-(2,6-dichlorophenyl)-5-isopropylisoxazol-4-yl)methoxy)styryl)benzoic acid (Compound GW4064), was included in each experiment as positive control. The efficacy of each test compound was compared to that of GW4064. At each concentration, the relative activity of the test compound was expressed as Response %=(Rsample−RDMSO)/(Rpositive−RDMSO), where Rsample is the HTRF response (expressed in Delta F %) for the test compound, Rpositive is the maximal response for GW4064 at saturating concentrations, and RDMSO is the response for DMSO control. The EC50 values were calculated using GraphPad Prism (GraphPad Software) using non-linear regression curve fit (log(agonist) vs. response—variable slope (four parameters)).

Compound	EC50 [nM]
Cn1nc(C(=O)N(Cc2ccccc2)Cc2cccc(F)c2)c2c1-c1cc(Cl)ccc1OC2 [Compound 57, N-benzyl-8-chloro-N-[(3-fluorophenyl)methyl]-1-methyl-1H,4H-chromeno[4,3-c]pyrazole-3-carboxamide]	509
Cn1nc(C(=O)N(CCNC(=O)NCC2CC2)Cc2ccccc2F)c2c1-c1cc(Cl)ccc1OC2 [Compound 60, 8-chloro-N-(2-(3-(cyclopropylmethyl)ureido)ethyl)-N-(2-fluorobenzyl)-1-methyl-1,4-dihydrochromeno[4,3-c]pyrazole-3-carboxamide]	1810
CC(C)NC(=O)NCCN(Cc1ccccc1F)C(=O)c1nn(C)c2c1COc1ccc(Cl)cc1-2 [Compound 61, 8-chloro-N-[(2-fluorophenyl)methyl]-1-methyl-N-(2-{[(propan-2-yl)carbamoyl]amino}ethyl)-1H,4H-chromeno[4,3-c]pyrazole-3-carboxamide]	1080
CC(C)S(=O)(=O)NCCN(Cc1ccccc1F)C(=O)c1nn(C)c2c1COc1ccc(Cl)cc1-2 [Compound 63, 8-chloro-N-[(2-fluorophenyl)methyl]-1-methyl-N-[2-(propane-2-sulfonamido)ethyl]-1H,4H-chromeno[4,3-c]pyrazole-3-carboxamide]	644
CC(C)S(=O)(=O)NCCN(Cc1ccccc1)C(=O)c1nn(C)c2c1COc1ccc(Br)cc1-2 [Compound 64, N-benzyl-8-bromo-1-methyl-N-[2-(propane-2-sulfonamido)ethyl]-1H,4H-chromeno[4,3-c]pyrazole-3-carboxamide]	695
Cn1nc(C(=O)N(CCNc2nccs2)Cc2cccc(F)c2)c2c1-c1cc(Cl)ccc1OC2 [Compound 76, 8-chloro-N-[(3-fluorophenyl)methyl]-1-methyl-N-{2-[(1,3-thiazol-2-yl)amino]ethyl}-1H,4H-chromeno[4,3-c]pyrazole-3-carboxamide]	259
Cn1nc(C(=O)N(CC(=O)NCC2CC2)Cc2ccccc2F)c2c1-c1cc(Br)ccc1OC2(C)C [Compound 78, 2-(1-{8-bromo-1,4,4-trimethyl-1H,4H-chromeno[4,3-c]pyrazol-3-yl}-N-[(2-fluorophenyl)methyl]formamido)-N-(cyclopropylmethyl)acetamide]	2230
Cn1nc(C(=O)N(CC(=O)NCC2CCOCC2)Cc2ccccc2F)c2c1-c1cc(Cl)ccc1OC2 [Compound 82, 2-(1-{8-chloro-1-methyl-1H,4H-chromeno[4,3-c]pyrazol-3-yl}-N-[(2-fluorophenyl)methyl]formamido)-N-(oxan-4-ylmethyl)acetamide]	178

These reach a lower EC50. Values come first.

EC50 [nM]	Compound
18	CC(C)C(=O)NCCN(Cc1cccc(F)c1)C(=O)c1nn(C)c2c1COc1ccc(Br)cc1-2 [Compound 62, 8-bromo-N-(3-fluorobenzyl)-N-(2-isobutyramidoethyl)-1-methyl-1,4-dihydrochromeno[4,3-c]pyrazole-3-carboxamide]
12	Cn1nc(C(=O)N(CC(=O)NCC2CC2)Cc2ccccc2F)c2c1-c1cc(F)ccc1OC2 [Compound 65, N-(2-((cyclopropylmethyl)amino)-2-oxoethyl)-8-fluoro-N-(2-fluorobenzyl)-1-methyl-1,4-dihydrochromeno[4,3-c]pyrazole-3-carboxamide]
10	CC(C)C(=O)NCCN(Cc1ccccc1F)C(=O)c1nn(C)c2c1COc1ccc(Cl)cc1-2 [Compound 66, N-[2-(1-{8-chloro-1-methyl-1H,4H-chromeno[4,3-c]pyrazol-3-yl}-N-[(2-fluorophenyl)methyl]formamido)ethyl]-2-methylpropanamide]
22	CC(C)C(=O)NCCN(Cc1ccccc1)C(=O)c1nn(C)c2c1COc1ccc(Br)cc1-2 [Compound 68, N-[2-(N-benzyl-1-{8-bromo-1-methyl-1H,4H-chromeno[4,3-c]pyrazol-3-yl}formamido)ethyl]-2-methylpropanamide]
50	CC(C)C(=O)NCCN(Cc1ccccc1)C(=O)c1nn(C)c2c1COc1ccc(Cl)cc1-2 [Compound 73, N-[2-(N-benzyl-1-{8-chloro-1-methyl-1H,4H-chromeno[4,3-c]pyrazol-3-yl}formamido)ethyl]-2-methylpropanamide]
96	Cn1nc(C(=O)N(CC(=O)NCC2CC2)CC2CCCCC2)c2c1-c1cc(Cl)ccc1OC2 [Compound 74, 2-(1-{8-chloro-1-methyl-1H,4H-chromeno[4,3-c]pyrazol-3-yl}-N-(cyclohexylmethyl)formamido)-N-(cyclopropylmethyl)acetamide]
87	Cn1nc(C(=O)N(CC(=O)NCC2CC2)CC2CCCC2)c2c1-c1cc(Cl)ccc1OC2 [Compound 75, 2-(1-{8-chloro-1-methyl-1H,4H-chromeno[4,3-c]pyrazol-3-yl}-N-(cyclopentylmethyl)formamido)-N-(cyclopropylmethyl)acetamide]
61	C[C@@H](C(=O)NCC1CC1)N(Cc1ccccc1F)C(=O)c1nn(C)c2c1COc1ccc(Cl)cc1-2 [Compound 80, (2S)-2-(1-{8-chloro-1-methyl-1H,4H-chromeno[4,3-c]pyrazol-3-yl}-N-[(2-fluorophenyl)methyl]formamido)-N-(cyclopropylmethyl)propanamide]
48	Cn1nc(C(=O)N(CC(=O)NCC2CC2)Cc2nccs2)c2c1-c1cc(Cl)ccc1OC2 [Compound 81, 2-(1-{8-chloro-1-methyl-1H,4H-chromeno[4,3-c]pyrazol-3-yl}-N-(1,3-thiazol-2-ylmethyl)formamido)-N-(cyclopropylmethyl)acetamide]

Source: US10351576B2, “Fused tricyclic pyrazole derivatives useful for farnesoid X receptors” (NOVARTIS AG, priority 2015, dated 2019)
